The text below walks through data of US7622475B2, “EP2 agonists” (Pfizer Inc, priority 2006, dated 2009).

The target in series [1] is T1, EP2 (Homo sapiens, UniProt P43116). Nature of the series: EP2 cAMP EC50 (Table 1). Format: cell-based.
The subject of a further series is glaucomatous dogs. Nature of the series: IOP change after topical instillation in glaucomatous dogs. To be noted: single 50 μl drop, @ 6 h, drawing 64 […] ([…]), drawing 65 0.1 mg/ml (0.01%). Format: in vivo. As to the method: Typically, compounds in suitable formulations were dosed topically and IOP was measured using tonometry. A single 50 μl drop containing either vehicle or drug was instilled in each eye of glaucomatous dogs and IOP was measured at 1, 2, 4, and 6 hours post dose. A baseline IOP measurement was taken prior to topical instillation of vehicle or drug. Changes in IOP between vehicle treatment followed by treatment with EP2 compounds were assessed over time in the glaucomatous dogs. ΔΔ Emax reflects the difference in IOP±standard error from EP2 compound-treated eye over that seen for vehicle-treated eye at the time point wherein maximum IOP reduction for compound was seen. The percent ΔΔ Emax was the percentage change in IOP reduction conferred by compound over that for vehicle (set at 100%).

Series [2] is described as follows: Solid form by powder X-ray diffraction. To be noted: FIG. 1. Format: physicochemical. As for the experimental part:
During analysis, the samples were analyzed from angles of 4 to 40 degrees (θ-2θ) using a scan time of 60 seconds and a scan spot size of 0.5 mm.
The X-Ray diffraction peaks, characterized by peak positions and intensity assignments, have been extracted from the X-ray powder diffractogram of Example 1 and comparative compound 12. One of skill in the art will appreciate that the peak positions (2θ) will show some inter-apparatus variability, typically as much as 0.1 degrees. Accordingly, where peak positions (2θ) are reported, one of skill in the art will recognize that such numbers are intended to encompass such inter-apparatus variability.

Series [3] concerns the target T2, prostaglandin E2 type 2 (EP2) receptors (Homo sapiens, UniProt P43116).
T2 construct: expressed in transfected cells
Nature of the series: Assay for binding to prostaglandin E2 receptors (3H-prostaglandin E2 displacement, membranes of transfected cells). To be noted: displacement of 3H-prostaglandin E2. As to the method: All operations are performed at 4° C. […] These are lysed by sonification with a Branson Sonifier (Model #250, Branson Ultrasonics Corporation, Danbury, Conn.) in 2 fifteen second bursts. Unlysed cells and debris are removed by centrifugation at 100×g for 10 min. Membranes are then harvested by centrifugation at 45,000×g for 30 minutes. Pelleted membranes are resuspended to 3-10 mg protein per ml, protein concentration being determined according to the method of Bradford [Bradford, M., Anal. Biochem., 72, 248 (1976)]. Resuspended membranes are then stored frozen at −80° C. until use.
Frozen membranes as prepared are thawed and diluted to 1 mg protein per ml in Buffer A. One volume of membrane preparation is combined with 0.05 volume test compound or buffer and one volume of 3 nM 3H-prostaglandin E2 (#TRK 431, Amersham, Arlington Heights, Ill.) in Buffer A. The mixture (205 μL total volume) is incubated for 1 hour at 25° C. The membranes are then recovered by filtration through type GF/C glass fiber filters (#1 205401, Wallac, Gaithersburg, Md.) using a Tomtec harvester (Model Mach II/96, Tomtec, Orange, Conn.). The membranes with bound 3H-prostaglandin E2 are trapped by the filter, the buffer and unbound 3H-prostaglandin E2 pass through the filter into waste. Each sample is then washed 3 times with 3 ml of [50 mM Tris-HCl (pH 7.4), 10 mM MgCl2, 1 mM EDTA]. The filters are then dried by heating in a microwave oven. To determine the amount of 3H-prostaglandin bound to the membranes, the dried filters are placed into plastic bags with scintillation fluid and counted in a LKB 1205 Betaplate reader (Wallac, Gaithersburg, Md.). IC50s are determined from the concentration of test compound required to displace 50% of the specifically bound 3H-prostaglandin E2.
Background: Displacement assays read how much labelled ligand stays bound in the presence of the test substance.

In series [4] the test system is murine astrocyte cultures. The conditions noted are these: cited from earlier work.
Series [5] deals with recombinant murine EP2 receptor (Mus musculus, UniProt Q62053). The conditions noted are these: fraction of the affinity of PGE2; cited from earlier work.
Series [6] deals with ocular hypertensive non-human primates. Nature of the series: IOP change after topical application in ocular hypertensive non-human primates. To be noted: for Tmax: time point of maximum IOP reduction. The format is in vivo. As for the experimental part:
Tables 2 and 3 describe the intraocular pressure (IOP) changes that were seen following topical application of EP2 agonists in ocular hypertensive non-human primates. Typically, compounds in suitable formulations were dosed topically and IOP was measured using tonometry. Changes in IOP between vehicle treatment followed by treatment with EP2 compounds were assessed over time in the dosed hypertensive eye. ΔΔ Emax reflects the difference in IOP from EP2 compound-treated eye over that seen for vehicle-treated eye at the timepoint wherein maximum IOP reduction for compound was seen. The percent ΔΔ Emax was the percentage change in IOP reduction conferred by compound over that for vehicle (set at 100%). Tmax represents the time point at which maximum IOP reduction of compound was observed. […] NS represents not significant. Table 2 compares acids of EP2 compound while Table 3 compares IOP response seen with esters of certain acids. Esters provide better corneal penetration and improved drug exposure in the anterior chamber compared to acids and are therefore dosed at ⅕th the dose for acids […].

The target in series [7] is T1, EP2. Also on record: expressed in transfected cells; host or cells: COS cells. The conditions noted are these: COS cells transfected with the human EP2 receptor; read-out: EC50 for the stimulation of cAMP; cited from earlier work.
The test system of series [8] is other murine EP receptors or DP, TP, FP or IP receptors. To be noted: cited from earlier work.
The next series concerns newborn piglets. To be noted: brief hypoxia, in the presence of PG synthase inhibitors; cited from earlier work.
The subject of series [9] is ocular hypertensive non-human primates. Nature of the series: IOP change after topical application in ocular hypertensive non-human primates. Format: in vivo. The conditions noted are these: isopropylesters, OHT primates, NT eye.
The next series relates to ciliary muscle. The conditions noted are these: topical ocular QD for 1 year; treated and contralateral eyes; cited from earlier work.

Molecules are shown by their SMILES. Where two headings read alike, the source gives them in different places.

T2 sequence (P43116 whole entry): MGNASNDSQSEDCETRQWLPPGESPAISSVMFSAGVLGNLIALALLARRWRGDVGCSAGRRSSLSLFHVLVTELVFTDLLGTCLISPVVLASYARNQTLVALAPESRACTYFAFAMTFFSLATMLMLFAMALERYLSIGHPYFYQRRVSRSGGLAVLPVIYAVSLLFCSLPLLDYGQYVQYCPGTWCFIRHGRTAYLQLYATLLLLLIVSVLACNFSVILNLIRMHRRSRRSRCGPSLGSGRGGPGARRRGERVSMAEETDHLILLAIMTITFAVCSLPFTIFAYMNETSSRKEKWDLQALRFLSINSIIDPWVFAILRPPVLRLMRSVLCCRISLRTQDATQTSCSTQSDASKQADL
T1 sequence (P43116 whole entry): as above
recombinant murine EP2 receptor, sequence (Q62053 whole entry): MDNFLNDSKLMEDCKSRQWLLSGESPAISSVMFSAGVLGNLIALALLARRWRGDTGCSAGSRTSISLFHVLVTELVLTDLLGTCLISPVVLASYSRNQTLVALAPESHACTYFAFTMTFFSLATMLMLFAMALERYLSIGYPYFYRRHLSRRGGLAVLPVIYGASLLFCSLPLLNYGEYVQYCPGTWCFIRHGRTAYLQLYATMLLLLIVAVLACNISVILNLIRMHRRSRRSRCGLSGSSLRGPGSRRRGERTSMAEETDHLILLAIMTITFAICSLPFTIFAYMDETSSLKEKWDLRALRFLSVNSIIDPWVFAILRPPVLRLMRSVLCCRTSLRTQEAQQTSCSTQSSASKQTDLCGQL

Turning to `CC(C)(C)OC(=O)COc1cccc(CN(Cc2ccc(-n3cccn3)cc2)S(=O)(=O)c2cccnc2)c1` [Example C12, t-butyl [3-({[4-(1H-pyrazol-1-yl)benzyl](pyridin-3-yl-sulfonyl)amino}methyl)phenoxy]acetate, reference compound], the EC50 (as a rule, the concentration giving half of the maximal effect) at EP2 [1] came out at 1.48 nM. In the series on glaucomatous dogs, the ΔΔEmax (%) is recorded as −34% @ 6 h and the “ΔΔEmax (mmHg)” value was −8.0 1.7 mmHg @ 6 h. Moreover, in [2], the solid form entry is recorded as “gummy material”. In [3], the IC50 (usually the concentration that inhibits the measured activity by half) amounted to 10 nM.
In the case of `CC(C)OC(=O)COc1cccc(CN(Cc2ccc(-n3cccn3)cc2)S(=O)(=O)c2cccnc2)c1` [Example 1, isopropyl [3-({[4-(1H-pyrazol-1-yl)benzyl](pyridin-3-yl-sulfonyl)amino}methyl)phenoxy]acetate], the EC50 on EP2 [1] stood at 1.48 nM. Also, in the series with glaucomatous dogs, the ΔΔEmax (%) is listed as −33% @ 6 h and the “ΔΔEmax (mmHg)” value was −7.0 1.2 mmHg @ 6 h. In series [2], the solid form entry was “crystalline form”. Moreover, in series [3], the IC50 was determined as 10 nM.
`CCCCC[C@H](O)/C=C/[C@H]1[C@H](O)CC(=O)[C@@H]1C/C=C\CCCC(=O)O` [PGE2, prostaglandin E2]: the “synthesis and secretion of BDNF and NGF” value in [4] was “stimulate synthesis and secretion of brain-derived neurotrophic factor (BDNF) and nerve growth factor (NGF)”.
In the case of `CC(C)OC(=O)COc1cccc(CN(Cc2ccc(-c3ncccn3)cc2)S(=O)(=O)c2cccnc2)c1` [Example 23], the EC50 on EP2 [1] stood at 5.4 nM. This molecule returned an IC50 in series [3] of 22 nM.
Consider `CCCC1([C@H](O)C/C=C/[C@H]2[C@H](O)CC(=O)[C@@H]2CCCCCCC(=O)OC)CCC1` (racemic) [Butaprost, (+/−)-15-Deoxy-16S-hydroxy-17-cyclobutyl PGE1], for which the “affinity relative to PGE2” value in series [5] is on record as “about 1/10”. Further, in series [6] (Primates, topical, acid EP2 agonists, Conc 0.1 %, topical, vs vehicle (set at 100%), read-out: ΔΔEmax (%)), the change in vivo at 0.1 % is -18%. In series [6] (acid EP2 agonists, Conc 0.1 %, topical, dosed hypertensive eye vs vehicle), the “ΔΔEmax (mm Hg)” value was −5.5 mm Hg. Besides, the “Tmax” value in series [6] (acid EP2 agonists, Conc 0.1 %) is given as 5 h. Moreover, on EP2 [7], the EC50 is about 5 µM. Also, the “binding to other prostanoid receptors” value in [8] is “does not bind appreciably”. Also, the “electrophysiological changes (VEPs and ERGs)” value in the series with newborn piglets is listed as “restoration of electrophysiological changes”.
As to `CC(C)OC(=O)c1csc(CCCN(CCOc2cc(Cl)cc(Cl)c2)S(C)(=O)=O)n1` [Example 7], the EC50 at EP2 [1] came out at 18 nM. The molecule further showed an IC50 in [3] of 5.3 nM.
Taken in the same sequence, the figures for `CCOC(=O)COc1cccc(CN(Cc2ccc(-n3cccn3)cc2)S(=O)(=O)c2cccnc2)c1` [Example 9] were 10 nM and 1.48 nM.
For the molecule `CC(C)OC(=O)CCc1cccc(CN(Cc2ccc(-c3ncccn3)cc2)S(=O)(=O)c2ccc(Cl)cc2)c1` [Example 22], the EC50 at EP2 [1] amounted to 3.3 nM. In [3], the IC50 is 15.7 nM.
Taken in the same sequence, the figures for `CC(C)OC(=O)Cc1cccc(CN(Cc2ccc(-c3nccs3)cc2)S(=O)(=O)c2cccnc2)c1` [Example 21] were 2.2 nM and 2.2 nM.
On to `CC(C)OC(=O)c1ccc(CCCN(CCCOc2cc(Cl)cc(Cl)c2)S(C)(=O)=O)s1` [Example 2], for which the EC50 at EP2 [1] turned out to be 8.15 nM. For the same molecule, the IC50 in series [3] was 3.22 nM.
For `CC(C)OC(=O)CCc1cccc(CN(Cc2ccc(-n3cccn3)cc2)S(=O)(=O)c2nccs2)c1` [Example 25], in that order: 5.9 nM and under 10 nM.
On to `CC(C)OC(=O)c1csc(CCCN(CCCc2cccc(Cl)c2)S(C)(=O)=O)n1` [Example 24], for which the half-maximal effective concentration (EC50) on EP2 [1] is 54 nM. For the same molecule, the IC50 in [3] turned out to be 6.64 nM.
Molecule `CC(C)OC(=O)CCc1cccc(CN(Cc2ccc(-c3ncccn3)cc2)S(=O)(=O)c2ccccc2)c1` [Example 14] showed an EC50 at EP2 [1] of 3.1 nM. This molecule came in with an IC50 in [3] of under 10 nM.
`CC(C)OC(=O)COc1cccc(CN(Cc2ccc(-n3cccn3)cc2)S(=O)(=O)c2cccnc2)c1` [drawing 61]: the “ΔΔEmax (mmHg)” value is listed as −7.5 mmHg in series [9] and −14 mmHg in [6] (isopropylesters, OHT primates, OHT eye, 0.1 mg/ml topical). The “Tmax” value in [6] (isopropylesters, OHT primates) was determined as 6 h.
In turn, `CC(C)OC(=O)c1ccc(CCCN(CCOc2cc(Cl)cc(Cl)c2)S(C)(=O)=O)s1` [Example 5] came in with a half-maximal effective concentration (EC50) on EP2 [1] of 4.8 nM. In series [3], this molecule registered an IC50 of 4.42 nM.
`CCCCCC(O)c1ccc(C2CCC(=O)C2CCCCCCC(=O)O)cc1` (stereo not drawn) [AH-13205]: the “number of nerve bundles in ciliary muscle” value with ciliary muscle is reported as “doubling in the number of nerve bundles in ciliary muscle”.
In turn, `CC(C)OC(=O)Cc1cccc(CN(Cc2ccc(-c3ncccn3)cc2)S(=O)(=O)c2cccnc2)c1` [Example 17] returned a 50% effective concentration (EC50) at EP2 [1] of 7.8 nM. In series [3], the IC50 is 3.9 nM.
`COC(=O)COc1cccc(CN(Cc2ccc(-n3cccn3)cc2)S(=O)(=O)c2cccnc2)c1` [Example 3]: the EC50 at EP2 [1] is 1.48 nM. The molecule further yielded an IC50 in [3] of 10 nM.
With `CC(C)OC(=O)COc1cccc(CN(Cc2ccc(-c3nccs3)cc2)S(=O)(=O)c2cn(C)cn2)c1` [Example 12], the response on EP2 [1] was half-maximal at 12 nM (EC50). The IC50 in series [3] turned out to be 26 nM.
On EP2 [1], `CC(C)OC(=O)COc1cccc(CN(Cc2ccc(-c3ccccn3)cc2)S(=O)(=O)c2cccnc2)c1` [Example 19] had an EC50 of 4.1 nM. In addition, the IC50 in series [3] stood at 7.6 nM.
For `CC(C)OC(=O)COc1cccc(CN(Cc2ccc(-c3nccs3)cc2)S(=O)(=O)c2cccnc2)c1` [Example 16], in that order: 0.85 nM and 3 nM.
Taken in the same sequence, the figures for `CC(C)OC(=O)CCc1cccc(CN(Cc2ccc(-c3ncccn3)cc2)S(=O)(=O)c2ccccn2)c1` [Example 15] were 4.9 nM and under 10 nM.
